Our source for the IC50 values is patent US20240308985A1 (Psy Therapeutics, Inc., priority 2021, published 2024).

This assay addresses Monoacylglycerol Lipase (MAGL) (Homo sapiens (Human), UniProt Q99685). Put plainly: MAGL inhibition potency (IC50) assay with 4NPA substrate. The assay is classed as biochemical. The source says: The potency of certain compounds for inhibiting MAGL were obtained using the following assays. The monoacylglycerol lipase inhibitor screening assay kit from Cayman Chemical was used to measure the MAGL potency for the compounds in Table 6 and Table 7. Cayman's Monoacylglycerol Lipase Inhibitor Screening Assay provides a method for screening human MAGL inhibitors. MAGL hydrolyzes 4-nitrophenylacetate resulting in a yellow product, 4-nitrophenol, with an absorbance of 405-412 nm. MAGL Inhibition was measured by the following assay. Monoacylglycerol Lipase (MAGL) inhibition was measured using recombinant MAGL enzyme (aa 2-303 RBC, internal preparation) and the substrate 4-Nitrophenyl acetate (4NPA) (Sigma-Aldrich, N8130). Hydrolysis of the substrate in the presence of the enzyme was measured by absorbance at 405 nm. 10 μL of assay buffer (10 mM Tris pH 7.5, 1 mM EDTA, 0.9% DMSO) was added to a black 384-well non-binding plate with clear bottom (Greiner, 781906) for each reaction. […] DMSO control wells were included for reference. A 10.8 nM (1.8×) MAGL mix in assay buffer was prepared, with 25 μL added to each reaction well, for a final assay concentration of 6 nM. No enzyme wells received 25 μL of buffer. Plate was incubated at room temperature for 30 minutes. 35 mM solution of 4NPA in methanol was prepared daily. A 4.5×4NPA substrate solution was prepared in assay buffer and 10 μL was added to each reaction well, for a final assay concentration of 0.25 mM. Plate was spun for 1 minute at 1000 rpm before measuring absorbance using a CLARIOstar plate reader (BMG Labtech). A kinetic reading at 405 nm was done every minute for 30 minutes. Data was analyzed using the linear slope of the reaction progress curve and the average of the no-enzyme wells (background) was subtracted from the data. The background-subtracted slope data was converted to % activity using the average of wells with enzyme and DMSO vehicle. IC50s were calculated using GraphPad software (Sigmoidal dose response, variable slope equation). […] Table 8 provides potency measurements of MAGL inhibition measured using the Potency Assay of Example 22 above, with the following modifications described in Table C. [table]

[1] abbreviates: Method 6: Reaction Biology MAGL enzyme, 6 nM, read-out: Potency (MAGL inhibition).
Where [2] appears, read: Method 6: Reaction Biology MAGL enzyme, 6 nM, read-out: MAGL Potency (Detection Method).
Setting [3] is: Method 11: Reaction Biology MAGL enzyme, 25 nM (name: Conc 20), read-out: MAGL Potency (Detection Method).

Where two headings read alike, the source gives them in different places.

Sequence of Monoacylglycerol Lipase (MAGL) (Q99685 2-303): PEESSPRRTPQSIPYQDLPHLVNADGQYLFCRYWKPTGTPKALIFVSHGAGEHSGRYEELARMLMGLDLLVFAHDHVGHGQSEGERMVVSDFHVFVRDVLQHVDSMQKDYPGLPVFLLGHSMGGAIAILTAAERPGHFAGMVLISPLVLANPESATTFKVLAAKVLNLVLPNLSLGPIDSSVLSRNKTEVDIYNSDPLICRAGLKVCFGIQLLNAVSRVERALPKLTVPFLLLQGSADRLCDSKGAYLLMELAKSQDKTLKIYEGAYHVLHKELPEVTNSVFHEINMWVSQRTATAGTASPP

On to `Cc1cc(C2CC3(C2)CN(C(=O)c2cccc4c2CCO4)C3)n(-c2ccccc2C)n1` [Compound 403], for which the IC50 (Method 14: Reaction Biology MAGL enzyme, 6 nM, read-out: Potency (MAGL inhibition)) is greater than 10000 nM.

Take `Cc1cnn(C2CC3(C2)CN(C(=O)c2cc(O)ccc2F)C3)c1-c1ccccc1Cl` [Compound 404]: the IC50 under setting [1] is greater than 10000 nM.

For the compound `Cc1ccccc1-c1ccnn1C1CC2(C1)CN(C(=O)c1cc(O)ccc1F)C2` [Compound 405], under setting [1], the IC50 was greater than 10000 nM.

On to `Cc1cc(-c2ccccc2C)n(C2CC3(C2)CN(C(=O)c2cc(O)ccc2F)C3)n1` [Compound 406], for which the IC50 under setting [1] is greater than 10000 nM.

On to `Cc1cc(F)c(C(=O)N2CC3(CC(n4ncc(C)c4-c4ccccc4C)C3)C2)cc1O` [Compound 407], for which, under setting [2], the IC50 lay within 50 to 150 nM.

Turning to `Cc1cnn(C2CC3(C2)CN(C(=O)c2cc(O)ccc2F)C3)c1-c1ccccc1F` [Compound 408, (2-fluoro-5-hydroxyphenyl){6-[5-(o-fluorophenyl)-4-methyl-1-pyrazolyl]-2-aza-2-spiro[3.3]heptyl}methanone], the IC50 under setting [2] was 50 to 150 nM.

With `O=C(c1cc(O)ccc1F)N1CC2(CC(n3ncc(C4CC4)c3-c3ccccc3Cl)C2)C1` [Compound 411, {6-[5-(o-chlorophenyl)-4-cyclopropyl-1-pyrazolyl]-2-aza-2-spiro[3.3]heptyl}(2-fluoro-5-hydroxyphenyl)methanone], the IC50 under setting [2] lay in the range of 150 to 500 nM.

For the compound `Cc1cc(-c2cc(F)ccc2C)n(C2CC3(C2)CN(C(=O)c2cc(O)ccc2F)C3)n1` [Compound 415, (2-fluoro-5-hydroxyphenyl){6-[5-(5-fluoro-2-tolyl)-3-methyl-1-pyrazolyl]-2-aza-2-spiro[3.3]heptyl}methanone], under setting [2], the IC50 was in the range of 50 to 150 nM.

Consider `Cc1cn(C2CC3(C2)CN(C(=O)c2cc(O)ccc2F)C3)nc1-c1ccccc1Cl` [Compound 416], for which the IC50 under setting [1] was greater than 10000 nM.

As to `Cc1cn(C2CC3(C2)CN(C(=O)c2cc(O)ccc2F)C3)nc1-c1ccccc1F` [Compound 417, (2-fluoro-5-hydroxyphenyl){6-[3-(o-fluorophenyl)-4-methyl-1-pyrazolyl]-2-aza-2-spiro[3.3]heptyl}methanone], under setting [2], the IC50 is less than 50 nM.

Take `Cc1ccccc1-c1c(C)cnn1C1CC2(C1)CN(C(=O)c1ccc(F)cc1OC1CC1)C2` [Compound 419, (2-cyclopropoxy-4-fluorophenyl){6-[4-methyl-5-(o-tolyl)-1-pyrazolyl]-2-aza-2-spiro[3.3]heptyl}methanone]: under setting [2], the IC50 lay in the range of 1000 to 5100 nM.

In the case of `Cc1cnn(C2CC3(C2)CN(C(=O)c2ccc(F)cc2OC2CC2)C3)c1-c1ccccc1C(F)(F)F` [Compound 420, (2-cyclopropoxy-4-fluorophenyl)(6-{4-methyl-5-[o-(trifluoromethyl)phenyl]-1-pyrazolyl}-2-aza-2-spiro[3.3]heptyl)methanone], the IC50 under setting [2] was in the range of 1000 to 5100 nM.

As for `Cc1ccc(F)cc1-c1c(C)cnn1C1CC2(C1)CN(C(=O)c1ccc(F)cc1OC1CC1)C2` [Compound 422, (2-cyclopropoxy-4-fluorophenyl){6-[5-(5-fluoro-2-tolyl)-4-methyl-1-pyrazolyl]-2-aza-2-spiro[3.3]beptyl}methanone], the IC50 under setting [2] was in the range of 1000 to 5100 nM.

With `Cc1cc(-c2cc(F)ccc2C)n(C2CC3(C2)CN(C(=O)c2ccc(F)cc2OC2CC2)C3)n1` [Compound 423, (2-cyclopropoxy-4-fluorophenyl){6-[5-(5-fluoro-2-tolyl)-3-methyl-1-pyrazolyl]-2-aza-2-spiro[3.3]heptyl}methanone], the IC50 under setting [2] was 1000 to 5100 nM.

With `O=C(c1ccc(F)cc1OC1CC1)N1CC2(CC(n3nc(C(F)(F)F)cc3-c3ccccc3C(F)(F)F)C2)C1` [Compound 424, (2-cyclopropoxy-4-fluorophenyl)(6-(3-(trifluoromethyl)-5-(2-(trifluoromethyl)phenyl)-1H-pyrazol-1-yl)-2-azaspiro[3.3]heptan-2-yl)methanone], the IC50 under setting [1] was greater than 10000 nM.

Take `Cc1cn(C2CC3(C2)CN(C(=O)c2ccc(F)cc2OC2CC2)C3)nc1-c1ccccc1F` [Compound 425, (2-cyclopropoxy-4-fluorophenyl){6-[3-(o-fluorophenyl)-4-methyl-1-pyrazolyl]-2-aza-2-spiro[3.3]heptyl}methanone]: under setting [2], the IC50 is 150 to 500 nM.

Take `Cc1cc(-c2cc(F)ccc2C)n(C2CC3(C2)CN(C(=O)c2ccc(F)cc2OC(F)(F)F)C3)n1` [Compound 427]: for the setting “Method 11: Reaction Biology MAGL enzyme, 25 nM (name: Conc 20), read-out: Potency (MAGL inhibition)”, the IC50 was greater than 10000 nM.

As for `Cc1cc(-c2cc(F)ccc2C)n(C2CC3(C2)CN(C(=O)c2ccc(F)cc2OC(F)F)C3)n1` [Compound 428], the IC50 under setting [2] lay in the range of 150 to 500 nM.

Turning to `Cc1ccc(F)cc1-c1cc(C)n(C2CC3(C2)CN(C(=O)c2ccc(F)cc2OCF)C3)n1` [Compound 437, (4-fluoro-2-fluoromethoxyphenyl){6-[3-(5-fluoro-2-tolyl)-5-methyl-1-pyrazolyl]-2-aza-2-spiro[3.3]heptyl}methanone], the IC50 under setting [3] lay within 1000 to 5100 nM.

`COc1cc(F)ccc1C(=O)N1CC2(CC(n3nc(-c4cc(F)ccc4C)cc3C)C2)C1` [Compound 439, (4-fluoro-2-methoxyphenyl){6-[3-(5-fluoro-2-tolyl)-5-methyl-1-pyrazolyl]-2-aza-2-spiro[3.3]heptyl}methanone]: the IC50 under setting [2] was in the range of 1000 to 5100 nM.

Regarding `Cc1ccccc1-c1nn(C2CC3(C2)CN(C(=O)c2cc(O)ccc2F)C3)cc1C` [Compound 440, (2-fluoro-5-hydroxyphenyl){6-[4-methyl-3-(o-tolyl)-1-pyrazolyl]-2-aza-2-spiro[3.3]heptyl}methanone], under “Method 14: Reaction Biology MAGL enzyme, 6 nM, read-out: MAGL Potency (Detection Method)”, the IC50 was less than 50 nM.

As for `Cc1ccccc1-c1ccn(C2CC3(C2)CN(C(=O)c2cc(O)ccc2F)C3)n1` [Compound 441], the IC50 under setting [1] was greater than 10000 nM.

As to `Cc1ccccc1-c1cc(C)n(C2CC3(C2)CN(C(=O)c2cc(O)ccc2F)C3)n1` [Compound 442], the IC50 under setting [1] was greater than 10000 nM.

Take `Cc1cc(F)c(C(=O)N2CC3(CC(n4cc(C)c(-c5ccccc5C)n4)C3)C2)cc1O` [Compound 443]: under setting [2], the IC50 lay within 1000 to 5100 nM.

Turning to `Cc1cn(C2CC3(C2)CN(C(=O)c2cc(O)ccc2F)C3)nc1-c1ccccc1C(F)(F)F` [Compound 444, (2-fluoro-5-hydroxyphenyl)(6-{4-methyl-3-[o-(trifluoromethyl)phenyl]-1-pyrazolyl}-2-aza-2-spiro[3.3]heptyl)methanone], under setting [2], the IC50 is less than 50 nM.

For the compound `O=C(c1cc(O)ccc1F)N1CC2(CC(n3cc(C4CC4)c(-c4ccccc4Cl)n3)C2)C1` [Compound 445], the IC50 under setting [1] was greater than 10000 nM.

`Cc1ccc(F)cc1-c1cc(C)n(C2CC3(C2)CN(C(=O)c2cc(O)ccc2F)C3)n1` [Compound 446, (2-fluoro-5-hydroxyphenyl){6-[3-(5-fluoro-2-tolyl)-5-methyl-1-pyrazolyl]-2-aza-2-spiro[3.3]heptyl}methanone]: under setting [2], the IC50 was less than 50 nM.

`Cc1ccccc1-c1nn(C2CC3(C2)CN(C(=O)c2ccc(F)cc2OC2CC2)C3)cc1C` [Compound 447, (2-cyclopropoxy-4-fluorophenyl){6-[4-methyl-3-(o-tolyl)-1-pyrazolyl]-2-aza-2-spiro[3.3]heptyl}methanone]: the IC50 under setting [2] was 150 to 500 nM.

As for `Cc1cn(C2CC3(C2)CN(C(=O)c2ccc(F)cc2OC2CC2)C3)nc1-c1ccccc1C(F)(F)F` [Compound 448, (2-cyclopropoxy-4-fluorophenyl)(6-{4-methyl-3-[o-(trifluoromethyl)phenyl]-1-pyrazolyl}-2-aza-2-spiro[3.3]heptyl)methanone], the IC50 under setting [2] was in the range of 50 to 150 nM.

Take `Cc1ccc(F)cc1-c1nn(C2CC3(C2)CN(C(=O)c2ccc(F)cc2OC2CC2)C3)cc1C` [Compound 449, (2-cyclopropoxy-4-fluorophenyl){6-[3-(5-fluoro-2-tolyl)-4-methyl-1-pyrazolyl]-2-aza-2-spiro[3.3]beptyl}methanone]: the IC50 under setting [2] lay in the range of 150 to 500 nM.

`Cc1ccc(F)cc1-c1cc(C)n(C2CC3(C2)CN(C(=O)c2ccc(F)cc2OC2CC2)C3)n1` [Compound 450, (2-cyclopropoxy-4-fluorophenyl){6-[3-(5-fluoro-2-tolyl)-5-methyl-1-pyrazolyl]-2-aza-2-spiro[3.3]heptyl}methanone]: under setting [2], the IC50 was in the range of 150 to 500 nM.

For `Cc1cnn(C2CC3(C2)CN(C(=O)c2ccc(F)cc2OC2CC2)C3)c1-c1ccccc1F` [Compound 452, (2-cyclopropoxy-4-fluorophenyl){6-[5-(o-fluorophenyl)-4-methyl-1-pyrazolyl]-2-aza-2-spiro[3.3]beptyl}methanone], the IC50 under setting [2] fell in the range of 1000 to 5100 nM.

Regarding `Cc1ccc(F)cc1-c1cc(C)n(C2CC3(C2)CN(C(=O)c2ccc(F)cc2OC(F)(F)F)C3)n1` [Compound 454, {6-[3-(5-fluoro-2-tolyl)-5-methyl-1-pyrazolyl]-2-aza-2-spiro[3.3]heptyl}(4-fluoro-2-trifluoromethoxyphenyl)methanone], the IC50 under setting [3] was in the range of 1000 to 5100 nM.
